Data reported in patent publication US9732047B2, “N-alkoxyamide conjugates as imaging agents” (Lantheus Medical Imaging, Inc., priority 2008, dated 2017).
Like-named read-outs stand apart in the source and are kept apart here.

What was measured:
aorta [1] = settings: 60 min post injection; for aorta (% ID/g ± SD): 0.01-0.05 mCi/kg bolus via marginal ear vein
Description: Atherosclerosis was induced in New Zealand White male rabbits (3 kg) with aortic balloon endothelial injury (vide supra) followed by feeding a 0.5% cholesterol diet for 22 weeks. Test compounds were administered at 0.01-0.05 mCi/kg to anesthetized rabbits in a single, bolus injection via the marginal ear vein. Blood samples were collected from the central ear artery at 0, 2, 5, 7, 10, 15, 30 and 60 min post injection. Rabbits were euthanized at 60 min post injection for tissue harvesting (blood, muscle, bile, urine, kidney, liver, spleen, heart, lung, colon, small intestine, stomach, testes and in some cases, sternum, ligament and right ear). Abdominal aorta (upper, middle, and lower) and left and right femoral arteries were also collected. All samples were weighed and assayed for radioactivity; uptake is expressed as percentage of injected dose per gram of tissue (% ID/g).

[2] = system: Aorta bearing atherosclerotic plaque; assay: Ex-vivo blood vessel binding assay; set-up: species or system New Zealand white rabbits; settings: 153Gd-labeled compound 0.135 μCi in PBS, 2 h at 37° C., plaque-bearing rabbit aorta sections; percentage of initial activity
Description: Aorta bearing atherosclerotic plaque was obtained from New Zealand white rabbits that were balloon stripped along the abdominal aorta and placed on a high fat diet (0.5% cholesterol) for 16-22 weeks. Vascular injury was produced with a 4-F Fogarty catheter along the abdominal aorta and right iliofemoral artery. This procedure generates an accelerated complex lesion development with a lipid rich core covered by a fibrous cap in rabbits. Harvested aorta sections (0.5 cm) were incubated with 0.135 μCi of ^153Gd-labeled compound diluted in phosphate buffered saline (450 μL) for 2 h at 37° C. The supernatant was removed and analyzed by HPLC to assay compound stability. The tissue section was then washed with phosphate buffered saline (3×10 mL), then resuspended (10 mL) and incubated at 37° C. an additional 1 h. The supernatant was then removed, the washing process repeated and the tissue finally counted on a gamma counter. The amount of compound bound to the tissue was determined as a percentage of the initial activity according to the following formula: […]

aorta [3] = settings: 60 min post injection; for aorta uptake (% ID/g): ApoE mice on high-fat diet 35-42 weeks, 0.3-0.4 mCi/kg bolus via tail vein; for aorta:blood / aorta:heart: ApoE mice, uptake ratio
Description: The apolipoprotein E (ApoE) knockout mouse is a model of hypercholesterolemia that develops atherosclerotic lesions in the brachiocephalic artery, the aortic arch and the abdominal aorta. Mice were fed a high-fat diet to accelerate plaque formation and compounds were tested in the mice between 35-42 weeks on diet. Test compounds were administered at 0.3-0.4 mCi/kg to anesthetized mice in a single, bolus injection via the tail vein. Blood samples were collected via the tail between 0-30 min post injection for pharmacokinetic analysis and mice were euthanized by CO2 at 60 min for tissue harvesting. The aorta was first flushed with saline through the left ventricle exiting via the femoral vein then removed from the heart to the renal bifurcation; additional biological samples were also collected (blood, muscle, liver, kidney, bile, urine, heart, femur, reproductive organ, lung, spleen and innominate artery). All samples were weighed and assayed for radioactivity; uptake is expressed as a percentage of injected dose per gram of tissue (% ID/g).

aorta [4] = assay: In vivo rabbit aorta MR imaging; set-up: species or system New Zealand White male rabbits; settings: atherosclerotic rabbit, 0.1 mmol/kg via marginal ear vein, MR at 4.7 T, shortly after injection
Description: A series of pre-injection images were acquired. The rabbit was then injected with test compound (i.e., Example 31) at 0.1 mmol/kg via the marginal ear vein and images acquired at specified time intervals. All images were acquired at 4.7 T using an 8.5 cm field of view, 256×256 matrix using a black blood, flow-suppressed spin-echo method.

[5] = control rabbit (non-plaque bearing)

| SMILES | aorta (% ID/g ± SD) (aorta [1]; [5]) [% ID/g] | aorta:blood (aorta [1]; control rabbit) | aorta:heart (aorta [1]; control rabbit) | aorta (% ID/g ± SD) (aorta [1]; plaque rabbit) [% ID/g] | aorta:blood (aorta [1]; plaque rabbit) | aorta:heart (aorta [1]; plaque rabbit) | % bound [2] [%] | aorta uptake (% ID/g) (aorta [3]) | aorta:blood (aorta [3]) | aorta:heart (aorta [3]) | relative image intensity in the aorta (aorta [4]) |
| --- | --- | --- | --- | --- | --- | --- | --- | --- | --- | --- | --- |
| N[C@H](CCc1ccccc1)C(=O)NOCc1ccc(CNC(=O)CN2CCN(CC(=O)[O-])CCN(CC(=O)[O-])CCN(CC(=O)[O-])CC2)cc1.[153Gd+3] [Example 38] | 0.196 ± 0.023 | 5.1 | 11.0 | 0.103 ± 0.002 | 2.4 | 5.1 | 19.1 | 11.6 ± 0.8 | 5.5 | 20.5 | – |
| [153Gd+3].[NH3+][C@H](CCc1ccccc1)C(=O)NOCc1ccc(CNC(=O)CN(CCN(CC(=O)[O-])CC(=O)[O-])CCN(CC(=O)[O-])CC(=O)[O-])cc1 [Example 37] | – | – | – | 0.087 ± 0.010 | 2.1 | 4.6 | 12.8 | 10.4 ± 1.4 | 4.2 | 16.2 | – |
| N[C@H](Cc1cc2ccccc2[nH]1)C(=O)NOCc1ccc(CNC(=O)CN2CCN(CC(=O)[O-])CCN(CC(=O)[O-])CCN(CC(=O)[O-])CC2)cc1.[153Gd+3] [Example 62] | 0.159 | 3.2 | 6.4 | – | – | – | 17.1 | 11.8 ± 1.4 | 5.7 | 22.2 | – |
| CC(C)C[C@@H](N)C(=O)NOCc1ccc(CNC(=O)CN2CCN(CC(=O)[O-])CCN(CC(=O)[O-])CCN(CC(=O)[O-])CC2)cc1.[Gd+3] [Example 31] | – | – | – | – | – | – | – | – | – | – | marked increase of relative image intensity in the aorta |
| N[C@H](Cc1ccc2ccccc2c1)C(=O)NOCc1ccc(CNC(=O)CN2CCN(CC(=O)[O-])CCN(CC(=O)[O-])CCN(CC(=O)[O-])CC2)cc1.[153Gd+3] [Example 60] | 0.187 ± 0.022 | 3.8 | 6.4 | 0.108 ± 0.012 | 2.4 | 4.0 | 30.9 | 18.4 ± 2.4 | 9.8 | 25.2 | – |
